Values quoted from earlier work as cited in patent publication US9072718B2, “Burdock fruit extract containing arctigenin and method for producing same” (Kracie Pharma, Ltd., priority 2010, dated 2015).

How the values were obtained:
[1] = stated without a test
[2] = test system: pancreas cancer cell line PANC-1; conditions: PANC-1, undernutrition condition; Non-patent document 1

SMILES	solubility in water [1]	effect on viability of tumor cells in the undernutrition condition [2]
COc1cc(C[C@H]2C(=O)OC[C@@H]2Cc2ccc(OC)c(OC)c2)ccc1O [arctigenin]	hardly soluble in water	effective
COc1ccc(C[C@H]2COC(=O)[C@@H]2Cc2ccc(O[C@@H]3O[C@H](CO)[C@@H](O)[C@H](O)[C@H]3O)c(OC)c2)cc1OC [arctiin]	hardly soluble in water	–
